Assays:
[1] = Growth inhibition of human HCC2998 cells at 10 uM after 48 hrs by SRB assay relative to control; type: functional; settings: HCC 2998, 48 h, read-out: GI
[2] = Growth inhibition of human HCT116 cells at 10 uM after 48 hrs by SRB assay relative to control; type: functional; settings: HCT-116, 48 h, read-out: GI
[3] = test system: HT-29; assay: Growth inhibition of human HT-29 cells at 10 uM after 48 hrs by SRB assay relative to control; type: functional; settings: HT-29, 48 h, read-out: GI
[4] = Growth inhibition of human SW620 cells at 10 uM after 48 hrs by SRB assay relative to control; type: functional; settings: SW-620, 48 h, read-out: GI
[5] = test system: M14; assay: Growth inhibition of human M14 cells at 10 uM after 48 hrs by SRB assay relative to control; type: functional; settings: M14, 48 h, read-out: GI
[6] = test system: MDA-MB-435; assay: Growth inhibition of human MDA-MB-435 cells at 10 uM after 48 hrs by SRB assay relative to control; type: functional; settings: MDA-MB-435, 48 h, read-out: GI
[7] = test system: SK-MEL-2; assay: Growth inhibition of human SK-MEL-2 cells at 10 uM after 48 hrs by SRB assay relative to control; type: functional; settings: SK-MEL-2, 48 h, read-out: GI
[8] = test system: SK-MEL-28; assay: Growth inhibition of human SK-MEL-28 cells at 10 uM after 48 hrs by SRB assay relative to control; type: functional; settings: SK-MEL-28, 48 h, read-out: GI
[9] = Growth inhibition of human LOXIMVI cells at 10 uM after 48 hrs by SRB assay relative to control; type: functional; settings: LOX IMVI, read-out: GI
[10] = test system: Malme-3M; assay: Growth inhibition of human MALME-3M cells at 10 uM after 48 hrs by SRB assay relative to control; type: functional; settings: read-out: GI
[11] = Growth inhibition of human UACC257 cells at 10 uM after 48 hrs by SRB assay relative to control; type: functional; settings: UACC-257, 48 h, read-out: GI
[12] = Growth inhibition of human OVCAR5 cells at 10 uM after 48 hrs by SRB assay relative to control; type: functional; settings: OVCAR-5, 48 h, read-out: GI
[13] = Growth inhibition of human IGROV1 cells at 10 uM after 48 hrs by SRB assay relative to control; type: functional; settings: IGROV-1, 48 h, read-out: GI
[14] = test system: A498; assay: Growth inhibition of human A498 cells at 10 uM after 48 hrs by SRB assay relative to control; type: functional; settings: A498, 48 h, read-out: GI
[15] = Growth inhibition of human Caki1 cells at 10 uM after 48 hrs by SRB assay relative to control; type: functional; settings: CAKI-1, 48 h, read-out: GI
[16] = Growth inhibition of human RXF393 cells at 10 uM after 48 hrs by SRB assay relative to control; type: functional; settings: RXF 393, 48 h, read-out: GI
[17] = test system: SN12C; assay: Growth inhibition of human SN12C cells at 10 uM after 48 hrs by SRB assay relative to control; type: functional; settings: read-out: GI
[18] = Growth inhibition of human UO31 cells at 10 uM after 48 hrs by SRB assay relative to control; type: functional; settings: UO-31, 48 h, read-out: GI
[19] = test system: 786-0; assay: Growth inhibition of human 786-0 cells at 10 uM after 48 hrs by SRB assay relative to control; type: functional; settings: 786-0, 48 h, read-out: GI
[20] = test system: ACHN; assay: Growth inhibition of human ACHN cells at 10 uM after 48 hrs by SRB assay relative to control; type: functional; settings: read-out: GI
[21] = Growth inhibition of human TK10 cells at 10 uM after 48 hrs by SRB assay relative to control; type: functional; settings: TK-10, 48 h, read-out: GI
[22] = Growth inhibition of human DU145 cells at 10 uM after 48 hrs by SRB assay relative to control; type: functional; settings: DU-145, 48 h, read-out: GI
[23] = Growth inhibition of human SNB19 cells at 10 uM after 48 hrs by SRB assay relative to control; type: functional; settings: SNB-19, 48 h, read-out: GI
[24] = test system: U-251; assay: Growth inhibition of human U251 cells at 10 uM after 48 hrs by SRB assay relative to control; type: functional; settings: U-251, 48 h, read-out: GI
[25] = test system: MCF7; assay: Growth inhibition of human MCF7 cells at 10 uM after 48 hrs by SRB assay relative to control; type: functional; settings: MCF7, 48 h, read-out: GI
[26] = test system: MDA-MB-231; assay: Growth inhibition of human MDA-MB-231 cells at 10 uM after 48 hrs by SRB assay relative to control; type: functional; settings: MDA-MB-231, 48 h, read-out: GI
[27] = test system: T47D; assay: Growth inhibition of human T47D cells at 10 uM after 48 hrs by SRB assay relative to control; type: functional; settings: read-out: GI
[28] = test system: MDA-MB-468; assay: Growth inhibition of human MDA-MB-468 cells at 10 uM after 48 hrs by SRB assay relative to control; type: functional; settings: MDA-MB-468, 48 h, read-out: GI
[29] = species on record: Ovis aries; assay: Inhibition of sheep brain tubulin polymerization at 100 uM by DAPI staining-based fluorimetric method
[30] = Growth inhibition of human HL-60(TB) cells at 10 uM after 48 hrs by SRB assay relative to control; type: functional; settings: HL-60, 48 h, read-out: GI
[31] = test system: K562; assay: Growth inhibition of human K562 cells at 10 uM after 48 hrs by SRB assay relative to control; type: functional; settings: K562, 48 h, read-out: GI
[32] = Growth inhibition of human RPMI8226 cells at 10 uM after 48 hrs by SRB assay relative to control; type: functional; settings: RPMI-8226, 48 h, read-out: GI
[33] = test system: A549; assay: Growth inhibition of human A549 cells at 10 uM after 48 hrs by SRB assay relative to control; type: functional; settings: A549, 48 h, read-out: GI
[34] = Growth inhibition of human HOP62 cells at 10 uM after 48 hrs by SRB assay relative to control; type: functional; settings: HOP-62, 48 h, read-out: GI
[35] = Growth inhibition of human HOP92 cells at 10 uM after 48 hrs by SRB assay relative to control; type: functional; settings: HOP-92, 48 h, read-out: GI
[36] = test system: NCI-H322M; assay: Growth inhibition of human NCI-H322M cells at 10 uM after 48 hrs by SRB assay relative to control; type: functional; settings: read-out: GI
[37] = test system: NCI-H460; assay: Growth inhibition of human NCI-H460 cells at 10 uM after 48 hrs by SRB assay relative to control; type: functional; settings: NCI-H460, 48 h, read-out: GI
[38] = test system: NCI-H522; assay: Growth inhibition of human NCI-H522 cells at 10 uM after 48 hrs by SRB assay relative to control; type: functional; settings: NCI-H522, 48 h, read-out: GI
[39] = Growth inhibition of human COLO205 cells at 10 uM after 48 hrs by SRB assay relative to control; type: functional; settings: COLO 205, 48 h, read-out: GI

SMILES | inhibition of growth at 10 µM [1] | inhibition of growth at 10 µM [2] | inhibition of growth at 10 µM [3] | inhibition of growth at 10 µM [4] | inhibition of growth at 10 µM [5] | inhibition of growth at 10 µM [6] | inhibition of growth at 10 µM [8] | inhibition of growth at 10 µM [9] | inhibition of growth at 10 µM [10] | inhibition of growth at 10 µM [11] | inhibition of growth at 10 µM [12] | inhibition of growth at 10 µM [13] | inhibition of growth at 10 µM [14] | inhibition of growth at 10 µM [15] | inhibition of growth at 10 µM [16] | inhibition of growth at 10 µM [17] | inhibition of growth at 10 µM [18] | inhibition of growth at 10 µM [19] | inhibition of growth at 10 µM [20] | inhibition of growth at 10 µM [21] | other results
COc1ccc(C(=O)N2c3ccccc3Sc3ccccc32)c(OC)c1 | 87% | 91% | 100% | 75% | 100% | 100% | 42% | 62% | 33% | 23% | 52% | 47% | 95% | 63% | 100% | 48% | 52% | 71% | 57% | 44% | inhibition of growth at 10 µM [7]: 62%; inhibition of growth at 10 µM [22]: 90%; inhibition of growth at 10 µM [23]: 68%; inhibition of growth at 10 µM [24]: 75%; inhibition of growth at 10 µM [25]: 80%; inhibition of growth at 10 µM [26]: 62%; inhibition of growth at 10 µM [27]: 59%; inhibition of growth at 10 µM [28]: 100%; inhibition [29]: 53%; inhibition of growth at 10 µM [30]: 99%; inhibition of growth at 10 µM [31]: 89%; inhibition of growth at 10 µM [32]: 84%; inhibition of growth at 10 µM [33]: 69%; inhibition of growth at 10 µM [34]: 52%; inhibition of growth at 10 µM [35]: 69%; inhibition of growth at 10 µM [36]: 38%; inhibition of growth at 10 µM [37]: 90%; inhibition of growth at 10 µM [38]: 100%; inhibition of growth at 10 µM [39]: 100%
COc1ccc(C(=O)N2c3ccccc3Sc3ccccc32)c(F)c1 | 70% | 80% | 95% | 85% | 98% | 100% | 41% | 60% | 53% | 33% | 38% | 45% | 98% | 55% | 100% | 39% | 51% | 77% | 52% | 55% | inhibition of growth at 10 µM [22]: 95%; inhibition of growth at 10 µM [23]: 64%; inhibition of growth at 10 µM [24]: 66%; inhibition of growth at 10 µM [25]: 76%; inhibition of growth at 10 µM [26]: 47%; inhibition of growth at 10 µM [27]: 60%; inhibition of growth at 10 µM [28]: 100%; inhibition [29]: 75%; inhibition of growth at 10 µM [30]: 85%; inhibition of growth at 10 µM [31]: 87%; inhibition of growth at 10 µM [32]: 81%; inhibition of growth at 10 µM [33]: 73%; inhibition of growth at 10 µM [34]: 63%; inhibition of growth at 10 µM [35]: 58%; inhibition of growth at 10 µM [36]: 56%; inhibition of growth at 10 µM [37]: 88%; inhibition of growth at 10 µM [38]: 99%; inhibition of growth at 10 µM [39]: 92%

Source: ChEMBL document CHEMBL3792297, “Studies on phenothiazines: New microtubule-interacting compounds with phenothiazine A-ring as potent antineoplastic agents” (Bioorg Med Chem, 2016)
